Where “and” joins values, the source holds several entries; their conditions need not be identical. Equal values may be shown once. Toxic doses and inconclusive results are not listed.
Tested on: BDF1 mice, B16 melanoma ip, median survival T/C
Assay: NCI In Vivo Anticancer Drug Screen. Data for tumor model B16 Melanoma (intraperitoneal) in B6D2F1 (BDF1) mice
Settings: endpoint: median survival time, higher = longer survival
Method in brief: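 Survival or tumor size is measured after treatment of tumor-bearing mice and normalised to the vehicle-treated control group.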

[1] = dose: 100.0 mg/kg/injection, schedule: Q01DX009 (ip), vehicle: Klucel (hydroxypropylcellulose) (HPC)
[2] = dose: 200.0 mg/kg/injection, schedule: Q01DX009 (ip), vehicle: Klucel (hydroxypropylcellulose) (HPC)
[3] = dose: 400.0 mg/kg/injection, schedule: Q01DX009 (ip), vehicle: Klucel (hydroxypropylcellulose) (HPC)
[4] = dose: 12.5 mg/kg/injection, schedule: Q01DX009 (ip), vehicle: saline
[5] = dose: 25.0 mg/kg/injection, schedule: Q01DX009 (ip), vehicle: saline
[6] = dose: 1.56 mg/kg/injection, schedule: Q01DX009 (ip), vehicle: Klucel (hydroxypropylcellulose) (HPC)
[7] = dose: 3.12 mg/kg/injection, schedule: Q01DX009 (ip), vehicle: Klucel (hydroxypropylcellulose) (HPC)
[8] = dose: 3.12 mg/kg/injection, schedule: Q01DX009 (ip), vehicle: saline
[9] = dose: 6.25 mg/kg/injection, schedule: Q01DX009 (ip), vehicle: saline
[10] = dose: 50.0 mg/kg/injection, schedule: Q01DX009 (ip), vehicle: saline
[11] = dose: 6.25 mg/kg/injection, schedule: Q01DX009 (ip), vehicle: Klucel (hydroxypropylcellulose) (HPC)
[12] = dose: 12.5 mg/kg/injection, schedule: Q01DX009 (ip), vehicle: Klucel (hydroxypropylcellulose) (HPC)
[13] = dose: 100.0 mg/kg/injection, schedule: Q01DX009 (ip), vehicle: saline with Tween-80
[14] = dose: 200.0 mg/kg/injection, schedule: Q01DX009 (ip), vehicle: saline with Tween-80
[15] = dose: 6.25 mg/kg/injection, schedule: Q01DX009 (ip), vehicle: saline with Tween-80
[16] = dose: 12.5 mg/kg/injection, schedule: Q01DX009 (ip), vehicle: saline with Tween-80
[17] = dose: 25.0 mg/kg/injection, schedule: Q01DX009 (ip), vehicle: saline with Tween-80
[18] = dose: 50.0 mg/kg/injection, schedule: Q01DX009 (ip), vehicle: saline with Tween-80

Compound: NC(C/[N+]([O-])=N/O)C(=O)O (centres undefined)
- T/C (dose: 15.6 mg/kg/injection, schedule: Q01DX009 (ip), vehicle: saline): 97 % of control
- T/C (dose: 15.6 mg/kg/injection, schedule: Q01DX009 (ip), vehicle: water): 105 % of control
- T/C (dose: 15.6 mg/kg/injection, schedule: Q04DX003 (ip), vehicle: saline): 100 % of control
- T/C (dose: 15.6 mg/kg/injection, schedule: Q04DX003 (ip), vehicle: water): 102 % of control
- T/C (dose: 16.0 mg/kg/injection, schedule: Q01DX009 (ip), vehicle: saline): 117 % of control
- T/C (dose: 31.3 mg/kg/injection, schedule: Q01DX009 (ip), vehicle: saline): 102 % of control and 105 % of control
- T/C (dose: 31.3 mg/kg/injection, schedule: Q01DX009 (ip), vehicle: water): 108 % of control
- T/C (dose: 31.3 mg/kg/injection, schedule: Q04DX003 (ip), vehicle: saline): 97 % of control
- T/C (dose: 31.3 mg/kg/injection, schedule: Q04DX003 (ip), vehicle: water): 97 % of control
- T/C (dose: 62.5 mg/kg/injection, schedule: Q01DX009 (ip), vehicle: saline): 111 % of control
- T/C (dose: 62.5 mg/kg/injection, schedule: Q01DX009 (ip), vehicle: water): 111 % of control
- T/C (dose: 62.5 mg/kg/injection, schedule: Q04DX003 (ip), vehicle: saline): 100 % of control and 95 % of control
- T/C (dose: 62.5 mg/kg/injection, schedule: Q04DX003 (ip), vehicle: water): 108 % of control
- T/C (dose: 100.0 mg/kg/injection, schedule: Q04DX003 (ip), vehicle: saline with Tween-80): 100 % of control
- T/C (dose: 125.0 mg/kg/injection, schedule: Q04DX003 (ip), vehicle: saline): 97 % of control and 111 % of control
- T/C (dose: 125.0 mg/kg/injection, schedule: Q04DX003 (ip), vehicle: water): 111 % of control
- T/C (dose: 200.0 mg/kg/injection, schedule: Q04DX003 (ip), vehicle: saline with Tween-80): 100 % of control
- T/C (dose: 250.0 mg/kg/injection, schedule: Q04DX003 (ip), vehicle: saline): 100 % of control and 109 % of control
- T/C (dose: 250.0 mg/kg/injection, schedule: Q04DX003 (ip), vehicle: water): 111 % of control
- T/C (dose: 400.0 mg/kg/injection, schedule: Q04DX003 (ip), vehicle: saline with Tween-80): 106 % of control
- T/C (dose: 500.0 mg/kg/injection, schedule: Q04DX003 (ip), vehicle: saline): 107 % of control
- T/C (dose: 500.0 mg/kg/injection, schedule: Q04DX003 (ip), vehicle: water): 97 % of control

Compound: Cc1[nH]c(=O)[nH]c(=O)c1[N+](=O)[O-]
- T/C [1]: 100 % of control
- T/C [2]: 95 % of control
- T/C [3]: 100 % of control

Compound: Cc1ccc(C(=O)NCCCOc2ccc(N3C(N)=NC(N)=NC3(C)C)cc2Cl)cc1S(=O)(=O)F
- T/C [4]: 96 % of control
- T/C [5]: 91 % of control

Compound: CN(C)C=Nc1ccccc1
- T/C [1]: 100 % of control
- T/C [2]: 112 % of control
- T/C [3]: 109 % of control

Compound: CCOC(=O)C1=NN(c2ccccc2)C(=O)C1
- T/C [1]: 97 % of control
- T/C [2]: 97 % of control
- T/C [3]: 97 % of control

Compound: NC(=O)CC(NC(=O)OCc1ccccc1)C(N)=O (centres undefined)
- T/C (dose: 100.0 mg/kg/injection, schedule: Q04DX003 (ip), vehicle: Klucel (hydroxypropylcellulose) (HPC)): 100 % of control
- T/C (dose: 200.0 mg/kg/injection, schedule: Q04DX003 (ip), vehicle: Klucel (hydroxypropylcellulose) (HPC)): 87 % of control
- T/C (dose: 400.0 mg/kg/injection, schedule: Q04DX003 (ip), vehicle: Klucel (hydroxypropylcellulose) (HPC)): 87 % of control

Compound: C1CCC2[N-]CC3CCCCC3[N-]CC3CCCCC3[N-]CC3CCCCC3[N-]CC2C1.[Cu] (centres undefined)
- T/C [6]: 123 % of control
- T/C [7]: 156 % of control

Compound: NC1(c2ccccc2)CCCCC1
- T/C [8]: 86 % of control
- T/C [9]: 100 % of control
- T/C [4]: 102 % of control
- T/C [5]: 100 % of control
- T/C [10]: 100 % of control

Compound: O=C1N(CC2CO2)CCN1CC1CO1 (centres undefined)
- T/C (dose: 12.5 mg/kg/injection, schedule: Q01DX009 (ip), vehicle: suspension in saline): 106 % of control
- T/C (dose: 25.0 mg/kg/injection, schedule: Q01DX009 (ip), vehicle: suspension in saline): 124 % of control
- T/C (dose: 100.0 mg/kg/injection, schedule: Q01DX009 (ip), vehicle: suspension in saline): 193 % of control

Compound: CN1CCC=C(C(=O)N2c3ccccc3CCc3ccccc32)C1
- T/C [5]: 97 % of control
- T/C [10]: 87 % of control
- T/C (dose: 100.0 mg/kg/injection, schedule: Q01DX009 (ip), vehicle: saline): 91 % of control

Compound: C[n+]1ccc2cc(N)c3c4ccccc4sc3c2c1
- T/C [7]: 103 % of control
- T/C [11]: 101 % of control
- T/C [9]: 113 % of control
- T/C [12]: 95 % of control
- T/C [4]: 119 % of control
- T/C [5]: 91 % of control

Compound: CCOc1ccc(OCC)c(NC(=O)c2ccccc2)c1
- T/C [13]: 114 % of control
- T/C [14]: 110 % of control
- T/C (dose: 400.0 mg/kg/injection, schedule: Q01DX009 (ip), vehicle: saline with Tween-80): 110 % of control

Compound: CCN(C(=O)Nc1ccccc1)c1ccccc1C
- T/C [15]: 100 % of control
- T/C [16]: 88 % of control
- T/C [17]: 94 % of control

Compound: CCC(CC)(COC(N)=O)COC(N)=O
- T/C (dose: 0.78 mg/kg/injection, schedule: Q01DX009 (ip), vehicle: Klucel (hydroxypropylcellulose) (HPC)): 89 % of control
- T/C [6]: 93 % of control
- T/C [7]: 95 % of control
- T/C [11]: 97 % of control
- T/C [12]: 86 % of control

Compound: CCOc1ccc([NH-])c([NH-])c1.[Cl][Pt+2][Cl]
- T/C (dose: 2.5 mg/kg/injection, schedule: Q01DX009 (ip), vehicle: distilled water + Tween-80): 115 % of control
- T/C (dose: 5.0 mg/kg/injection, schedule: Q01DX009 (ip), vehicle: distilled water + Tween-80): 115 % of control
- T/C (dose: 10.0 mg/kg/injection, schedule: Q01DX009 (ip), vehicle: distilled water + Tween-80): 117 % of control
- T/C (dose: 20.0 mg/kg/injection, schedule: Q01DX009 (ip), vehicle: distilled water + Tween-80): 102 % of control

Compound: S=C([S][Sn]([c]1ccccc1)([c]1ccccc1)[c]1ccccc1)N1CCCCC1
- T/C (dose: 3.12 mg/kg/injection, schedule: Q01DX009 (ip), vehicle: saline with Tween-80): 100 % of control
- T/C [15]: 107 % of control
- T/C [16]: 103 % of control
- T/C [17]: 99 % of control

Compound: O=C(O)CC(NC(=O)OCc1ccccc1)C(=O)O (centres undefined)
- T/C (dose: 1.56 mg/kg/injection, schedule: Q01DX009 (ip), vehicle: saline): 98 % of control
- T/C [8]: 104 % of control
- T/C [9]: 92 % of control

Compound: CSCCC1NC(=O)C(/C(C)=N\NC(N)=O)=C1O (centres undefined)
- T/C [17]: 111 % of control
- T/C [18]: 105 % of control
- T/C [13]: 96 % of control
- T/C [14]: 96 % of control

Compound: CC1=NCCc2c1cc1c([nH]c3ccccc31)c2C
- T/C [16]: 105 % of control
- T/C [17]: 110 % of control

Compound: NC1=C(N2CC2)C(=O)C(N)=C(N2CC2)C1=O
- T/C (dose: 6.0 micrograms/kg/injection, schedule: Q01DX009 (ip), vehicle: saline): 112 % of control
- T/C (dose: 12.5 micrograms/kg/injection, schedule: Q01DX009 (ip), vehicle: saline): 112 % of control
- T/C (dose: 25.0 micrograms/kg/injection, schedule: Q01DX009 (ip), vehicle: saline): 105 % of control
- T/C (dose: 50.0 micrograms/kg/injection, schedule: Q01DX009 (ip), vehicle: saline): 120 % of control
- T/C (dose: 200.0 micrograms/kg/injection, schedule: Q01DX009 (ip), vehicle: saline): 124 % of control

Compound: NNC(=O)c1ccc(-c2ccccc2)cc1
- T/C (dose: 12.5 mg/kg/injection, schedule: Q01DX009 (ip), vehicle: other): 93 % of control
- T/C (dose: 25.0 mg/kg/injection, schedule: Q01DX009 (ip), vehicle: other): 95 % of control
- T/C (dose: 50.0 mg/kg/injection, schedule: Q01DX009 (ip), vehicle: other): 100 % of control
- T/C (dose: 100.0 mg/kg/injection, schedule: Q01DX009 (ip), vehicle: other): 100 % of control

Compound: CCN(CC)CC#CCCCCN(CC)CC
- T/C (dose: 3.13 mg/kg/injection, schedule: Q01DX009 (ip), vehicle: saline): 95 % of control
- T/C [9]: 97 % of control
- T/C [4]: 90 % of control
- T/C [10]: 89 % of control

Compound: Cc1ccc[n+](CCc2c[nH]c3ccccc23)c1
- T/C [16]: 111 % of control
- T/C [17]: 99 % of control
- T/C [18]: 95 % of control
